Measured values as given in publication PMC5507300, “Antibacterial small molecules targeting the conserved TOPRIM domain of DNA gyrase” (PLoS ONE, 2017).
Converted amounts (≈) assume the structure as drawn. “And” between values parts separate entries of the source, which are not always exact repeats. Equal entries are not always repeated. Where two headings read alike, the source gives them in different places.

Columns and labels:
Type in all cases: cell-based
E. coli HS151 (ΔtolC) = test: microbe, parasite or virus in culture; settings: Escherichia coli
Excerpt: (§1) E. coli HS151 (ΔtolC) has been described previously. […] E. coli BW25113 and the Keio gene deletion collection based on BW25113 [25] were obtained from Thermo Fisher Scientific (Waltham, MA) and described in [26]. The plasmid-borne FQ resistance determinant, qnrVC3 [27], was kindly provided by D. Hooper (Massachusetts General Hospital). […] MB2884 (E. coli) and CL15245 (K. pneumoniae) are clinical isolates from the Merck & Co., Inc., Kenilworth, NJ, USA, strain collection. S. aureus COL is a methicillin-resistant clinical isolate.
(§2) Compound doubling dilutions were prepared in 100% DMSO (Sigma Aldrich) and 2 μL of each dilution was transferred to a 96-well plate with lid (Thermo Scientific). Inoculum for all MIC testing was prepared using the BBL Prompt Inoculation System (Becton Dickinson, Franklin Lakes, NJ USA) as described by the manufacturer to produce a suspension of cells at approximately 1.5 x 10^8 colony forming units (CFU)/mL [34–36] and a further dilution (1:1000) was made into cation adjusted Mueller-Hinton broth (CAMH broth, Becton-Dickinson). One hundred μL of this inoculum were then transferred to each well of the 96-well plate containing diluted compound (above). Plates were covered and incubated overnight (18 hrs.) at 37°C.

[1] = test system: P. aeruginosa(effluxΔ) MB5890; test: microbe, parasite or virus in culture; settings: Pseudomonas aeruginosa
Excerpt: as §1, §2

[2] = test system: E. coli MB2884 (clinical isolate); test: Broth microdilution MIC, E. coli MB2884; settings: Escherichia coli
Excerpt: as §1, §2

[3] = test system: A. baumannii ΔlpxC MB9796; test: Broth microdilution MIC, A. baumannii MB9796; settings: Acinetobacter baumannii
Excerpt: (§3) E. coli HS151 (ΔtolC) has been described previously. Gyrase inhibitor-resistant isolates (GYR101-108) were derived by selection for spontaneous resistance to MRL-770 or MRL-423 (Fig 1) in E. coli HS151 as described below. E. coli BW25113 and the Keio gene deletion collection based on BW25113 [25] were obtained from Thermo Fisher Scientific (Waltham, MA) and described in [26]. The plasmid-borne FQ resistance determinant, qnrVC3 [27], was kindly provided by D. Hooper (Massachusetts General Hospital). MB9796 (A. baumannii) is a derivative of MB9797 (ATCC19606) lacking lipopolysaccharide. The efflux-defective P. aeruginosa strain MB5890 (CB398) is a derivative of MB5919 (PAO1). MB2884 (E. coli) and CL15245 (K. pneumoniae) are clinical isolates from the Merck & Co., Inc., Kenilworth, NJ, USA, strain collection. S. aureus COL is a methicillin-resistant clinical isolate.
as §2

[4] = test system: A. baumanii MB9797 (ATCC19606); test: Broth microdilution MIC, A. baumannii MB9797; settings: Acinetobacter baumannii
Excerpt: as §3, §2

[5] = test system: P. aeruginosa MB5919 (PAO1); test: Broth microdilution MIC, P. aeruginosa MB5919; settings: Pseudomonas aeruginosa
Excerpt: as §1, §2

[6] = test system: K. pneumoniae CL15245 (clinical isolate); test: Broth microdilution MIC, K. pneumoniae CL15245; settings: Klebsiella pneumoniae
Excerpt: as §1, §2

S. aureus (MRSA) COL = test: Broth microdilution MIC, S. aureus COL; settings: Staphylococcus aureus, MRSA
Excerpt: as §3, §2

[7] = test system: E. coli GYR103 GyrB L446Q; test: microbe, parasite or virus in culture; settings: Escherichia coli
Excerpt: as §3, §2
After the agar solidified, 5 μL of a saturated bacterial culture, grown in CAMH broth, were dispensed on the agar surface and allowed to dry at room temperature. […] To select for resistance, a 100 mm petri dish was filled with 25 mL CAMH agar containing 8 μg/mL MRL-770 or 0.5 μg/mL MRL-423 (Fig 1). The cells in 1 mL of an overnight culture of E. coli HS151 (~10^9 CFU/mL) were concentrated by centrifugation and spread onto the surface of an MRL-770 or MRL-423 containing plate. After the surface dried at room temperature the plate was incubated at 37°C overnight. Any colonies that arose were counted and an approximate frequency of resistance was calculated after confirming resistance by restreaking on media containg compound as well as measuring MICs (see Results). Genomic DNA from the parent strain (E. coli HS151) and purified (restreaked) resistant isolates was obtained with a GeneJET genomic DNA purification kit according to the manufacturer’s instructions (Fisher Scientific). Assembled whole genome mutant sequences were then compared to the parent strain and polymorphisms were identified as described.

[8] = test system: E. coli GYR101 GyrB F513L; test: microbe, parasite or virus in culture; settings: Escherichia coli
Excerpt: as §1, §2
(§4) After the agar solidified, 5 μL of a saturated bacterial culture, grown in CAMH broth, were dispensed on the agar surface and allowed to dry at room temperature. […] After the surface dried at room temperature the plate was incubated at 37°C overnight. […] Genomic DNA from the parent strain (E. coli HS151) and purified (restreaked) resistant isolates was obtained with a GeneJET genomic DNA purification kit according to the manufacturer’s instructions (Fisher Scientific). Assembled whole genome mutant sequences were then compared to the parent strain and polymorphisms were identified as described.

[9] = test system: E. coli GYR102 GyrB E466EV; test: microbe, parasite or virus in culture; settings: Escherichia coli
Excerpt: as §1, §2, §4

[10] = test system: E. coli GYR104 GyrB L470I; test: microbe, parasite or virus in culture; settings: Escherichia coli
Excerpt: as §1, §2, §4

[11] = test system: E. coli GYR105 GyrB T469K; test: microbe, parasite or virus in culture; settings: Escherichia coli
Excerpt: as §1, §2, §4

[12] = test system: E. coli GYR106 GyrB F513L/A468V; test: microbe, parasite or virus in culture; settings: Escherichia coli
Excerpt: as §1, §2, §4

[13] = test system: E. coli GYR107 GyrB F513L/L422V; test: microbe, parasite or virus in culture; settings: Escherichia coli
Excerpt: as §1, §2, §4

[14] = test system: E. coli GYR108 GyrB L470I/V467L; test: microbe, parasite or virus in culture; settings: Escherichia coli
Excerpt: as §1, §2, §4

E. coli CIP101 GyrA D87N = test: microbe, parasite or virus in culture; settings: Escherichia coli
Procedure: as §2

HeLa Cell = test: HeLa cell cytotoxicity; settings: for EC50: Homo sapiens, HeLa, Average value (n = 2), cytotoxicity; for Fold above MIC: HeLa EC50 relative to MIC for E. coli HS151
[15] = Table 2, HS151, GyrB mutation none
[16] = read-out: E. coli HS151 MIC, S1 Table

Compound | MIC (E. coli HS151 (ΔtolC); Table 1, HS151 E. coli ΔtolC) | MIC (E. coli HS151 (ΔtolC); [15]) | MIC (E. coli HS151 (ΔtolC); [16]) | MIC [1] | MIC [2] | MIC [3] | MIC [4] | MIC [5] | MIC [6] | MIC (S. aureus (MRSA) COL) | MIC [7] | MIC [8] | MIC [9] | MIC [10] | MIC [11] | MIC [12] | MIC [13] | MIC [14] | MIC (E. coli CIP101 GyrA D87N) | EC50 (HeLa Cell) | further results
Cn1ncc2cc(-c3cnnn3C3CCN(C(=O)Nc4cc(Cl)cc(Cl)c4)CC3)ccc21 [MRL-423] | 0.25 µg/mL | 0.25 µg/mL | 0.53 µM | 1 µg/mL (≈ 2.13 µM) | > 64 µg/mL | 0.5 µg/mL (≈ 1.06 µM) | > 64 µg/mL | > 64 µg/mL | > 64 µg/mL | > 64 µg/mL | 0.5 µg/mL (≈ 1.06 µM) | 2 µg/mL (≈ 4.25 µM) | > 64 µg/mL | 1 µg/mL (≈ 2.13 µM) | 1 µg/mL (≈ 2.13 µM) | > 64 µg/mL | > 64 µg/mL | > 64 µg/mL | 0.25 µg/mL (≈ 0.532 µM) | 27.1 µM | MIC (E. coli HS151 (ΔtolC); Table 3, HS151): 0.25 µg/mL
COc1ccc(C)cc1NC(=O)N1CCC(n2nncc2-c2ccc3c(cnn3C)c2)CC1 [MRL-770] | 2 µg/mL | 2 µg/mL | 4.5 µM | 4 µg/mL (≈ 8.98 µM) | > 64 µg/mL | 4 µg/mL (≈ 8.98 µM) | > 64 µg/mL | > 64 µg/mL | > 64 µg/mL | > 64 µg/mL | > 64 µg/mL | > 64 µg/mL | > 64 µg/mL | > 64 µg/mL | 1 µg/mL (≈ 2.24 µM) | > 64 µg/mL | > 64 µg/mL | > 64 µg/mL | 2 µg/mL (≈ 4.49 µM) | > 100 µM | MIC (E. coli HS151 (ΔtolC); read-out: minimum inhibitory concentration (MIC), quoted in text with macromolecule labeling in E. coli JL553, strain not named at place, value equals HS151): 4.5 µM and 2 µg/mL; Fold above MIC (HeLa Cell): > 22 fold
Cn1ncc2cc(-c3nnnn3C3CCN(C(=O)Nc4ccc(Cl)c(Cl)c4)CC3)ccc21 [MRL-1082] | 0.0625 µg/mL | 0.0625 µg/mL | 0.13 µM | 0.25 µg/mL (≈ 0.53 µM) | > 64 µg/mL | 0.5 µg/mL (≈ 1.06 µM) | > 64 µg/mL | > 64 µg/mL | > 64 µg/mL | > 64 µg/mL | 0.0625 µg/mL (≈ 0.133 µM) | > 64 µg/mL | 8 µg/mL (≈ 17 µM) | 0.25 µg/mL (≈ 0.53 µM) | 0.25 µg/mL (≈ 0.53 µM) | > 64 µg/mL | > 64 µg/mL | 2 µg/mL (≈ 4.24 µM) | 0.125 µg/mL (≈ 0.265 µM) | 18.2 µM | MIC (E. coli HS151 (ΔtolC); Fig 4 legend, E. coli HS151): 0.0625 µg/mL; Fold above MIC (HeLa Cell): 140 fold
